This note sets out measurements from publication PMC5431190, “Investigation of cationicity and structure of pseudin-2 analogues for enhanced bacterial selectivity and anti-inflammatory activity” (Scientific Reports, 2017).

Converted amounts (≈) assume the structure as drawn. Residues, ends and D or L forms follow the SMILES beside them.

Data set [1] relates to S. aureus 3126(R) (MRSA 3126). Type of data set: cell-based, Staphylococcus aureus. Conditions: multidrug-resistant strain; 1% peptone media, 16 h at 37 °C.
The test system of data set [2] is S. aureus 3108(R) (MRSA 3108). Type of data set: cell-based, Staphylococcus aureus. Conditions: multidrug-resistant strain; 1% peptone media, 16 h at 37 °C.
Data set [3] has as its system human red blood cells (hRBCs). The data set is described as follows: Haemolytic activity. In kind it is cell-based. Conditions: red cells of human, 1 h. The procedure: Peptide-induced lysis of human red blood cells (hRBCs) was determined as follows. Fresh hRBCs were washed 2–3 times with phosphate-buffered saline (PBS) by centrifugation for 5 min at 2500 rpm at 4 °C. Peptides in PBS were incubated with 4% (v/v) hRBCs for 1 h at 37 °C. Samples were then centrifuged for 5 min at 1000 × g. The absorbance of the supernatant at 405 nm was used as a measure of haemolysis. As a positive control, 100% haemolysis was obtained by treating hRBCs with 0.1% Triton X-100.

The subject of data set [4] is Acinetobacter baumannii CCARM 12036 (MDRAB 12036). Type of data set: cell-based. Conditions: multidrug-resistant strain; 1% peptone media, 16 h at 37 °C. From the text:
(§1) Four Gram-negative bacteria species (Escherichia coli KCTC 1682, Acinetobacter baumannii KCTC 2508, Pseudomonas aeruginosa KCTC 1637 and Salmonella typhimurium KCTC 1926) and three Gram-positive bacteria species (Staphylococcus aureus KCTC 1621, Bacillus subtilis KCTC 3028 and Staphylococcus epidermidis KCTC 1917) were procured from the Korean Collection for Type Cultures (KCTC). Multi-drug-resistant Gram-negative bacteria (Salmonella typhimurium CCARM 8003 and 8007, Escherichia coli CCARM 1229 and 1238, Pseudomonas aeruginosa CCARM 2002 and 2095 and Acinetobacter baumannii CCARM 12035 and 12036) were obtained from the Culture Collection of Antibiotic-Resistant Microbes (CCARM). To determine MICs, bacteria were cultured in Luria-Bertani (LB) medium for overnight at 37 °C. An aliquot of the culture was incubated in 1% peptone media at 37 °C until mid-log phase. 100 μl of serial 2-fold diluted peptides were treated in 96 well plates and added to 100 μl of 2 × 10^6 CFU/ml bacterial suspensions in 1% peptone media for 16 h at 37 °C.

Data set [5] has as its system Bacillus subtilis KCTC 3028. Type of data set: cell-based. Conditions: KCTC 3028, 16 h.
Excerpt: as §1

In data set [6] the test system is Pseudomonas aeruginosa CCARM 2002 (MDRPA 2002). In kind it is cell-based. Conditions: multidrug-resistant strain; 1% peptone media, 16 h at 37 °C.
Excerpt: as §1

The subject of data set [7] is Gram-negative bacteria (E. coli, A. baumannii, P. aeruginosa, S. typhimurium). In kind it is cell-based. Conditions: 16 h.
Excerpt: as §1

The test system of data set [8] is Acinetobacter baumannii CCARM 12035 (MDRAB 12035). In kind it is cell-based. Conditions: multidrug-resistant strain; 1% peptone media, 16 h at 37 °C.
Excerpt: as §1

The subject of data set [9] is Pseudomonas aeruginosa KCTC 1637. Type of data set: cell-based. Conditions: KCTC 1637, 16 h.
Excerpt: as §1

Data set [10] deals with Escherichia coli KCTC 1682. Type of data set: cell-based. Conditions: KCTC 1682, 16 h.
Excerpt: as §1

The subject of data set [11] is Acinetobacter baumannii KCTC 2508. In kind it is cell-based. Conditions: KCTC 2508, 16 h.
Excerpt: as §1

Data set [12] deals with Pseudomonas aeruginosa CCARM 2095 (MDRPA 2095). Type of data set: cell-based. Conditions: multidrug-resistant strain; 1% peptone media, 16 h at 37 °C.
Excerpt: as §1

Data set [13] deals with Staphylococcus aureus KCTC 1621. In kind it is cell-based. Conditions: KCTC 1621, 16 h.
Excerpt: as §1

The test system of data set [14] is Salmonella typhimurium CCARM 8007 (MDRST 8007). In kind it is cell-based. Conditions: multidrug-resistant strain; 1% peptone media, 16 h at 37 °C.
Excerpt: as §1

The test system of data set [15] is Staphylococcus epidermidis KCTC 1917. In kind it is cell-based. Conditions: KCTC 1917, 16 h.
Excerpt: as §1

Data set [16] deals with Escherichia coli CCARM 1229 (MDREC 1229). In kind it is cell-based. Conditions: multidrug-resistant strain; 1% peptone media, 16 h at 37 °C.
Excerpt: as §1

Data set [17] relates to Salmonella typhimurium KCTC 1926. Type of data set: cell-based. Conditions: KCTC 1926, 16 h.
Excerpt: as §1

Data set [18] concerns Gram-positive bacteria (S. aureus, B. subtilis, S. epidermidis). Type of data set: cell-based. Conditions: 16 h.
Excerpt: as §1

The subject of data set [19] is Salmonella typhimurium CCARM 8003 (MDRST 8003). Type of data set: cell-based. Conditions: multidrug-resistant strain; 1% peptone media, 16 h at 37 °C.
Excerpt: as §1

Data set [20] relates to Escherichia coli CCARM 1238 (MDREC 1238). In kind it is cell-based. Conditions: multidrug-resistant strain; 1% peptone media, 16 h at 37 °C.
Excerpt: as §1

The subject of data set [21] is S. aureus 3089(R) (MRSA 3089). Type of data set: cell-based, Staphylococcus aureus. Conditions: multidrug-resistant strain; 1% peptone media, 16 h at 37 °C.
In data set [22] the target is T1, rhTLR4 (recombinant human Toll-like receptor 4) (human, UniProt O00206 24-631).
T1 construct: Toll-like receptor 4, recombinant human (rhTLR4), bought; No catalogue number is printed; source: bought: R&D systems, Minneapolis, USA
T1 sequence (O00206 24-631): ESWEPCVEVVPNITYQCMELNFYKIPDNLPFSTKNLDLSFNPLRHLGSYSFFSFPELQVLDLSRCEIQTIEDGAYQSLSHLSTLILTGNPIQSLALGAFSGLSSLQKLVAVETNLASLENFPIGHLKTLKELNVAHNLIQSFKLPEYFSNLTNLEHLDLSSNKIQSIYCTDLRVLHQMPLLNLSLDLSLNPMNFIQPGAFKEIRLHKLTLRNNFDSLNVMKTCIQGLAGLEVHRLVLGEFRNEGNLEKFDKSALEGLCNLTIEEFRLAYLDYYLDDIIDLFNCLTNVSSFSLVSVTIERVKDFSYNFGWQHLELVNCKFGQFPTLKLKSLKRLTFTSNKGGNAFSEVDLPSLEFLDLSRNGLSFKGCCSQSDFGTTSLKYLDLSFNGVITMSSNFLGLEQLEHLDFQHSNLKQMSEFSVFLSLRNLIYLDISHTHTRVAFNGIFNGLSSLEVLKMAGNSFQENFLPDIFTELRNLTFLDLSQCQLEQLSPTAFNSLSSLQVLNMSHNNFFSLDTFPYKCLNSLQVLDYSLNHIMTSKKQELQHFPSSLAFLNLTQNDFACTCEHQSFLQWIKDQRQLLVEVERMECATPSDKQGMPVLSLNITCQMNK
The data set is described as follows: BLI; BLItz system (ForteBio); rhTLR4 loaded on a Ni-NTA sensor, various amounts of peptide applied; biosensor hydrated 10 min in PBS; baseline 15 s, loading 60 s, baseline 30 s, association 60 s, dissociation 60 s. Conditions: both partners purified. For orientation: In BLI a coated tip is dipped into the sample, and binding shifts an interference pattern.

For the molecule `CC[C@H](C)[C@H](NC(=O)[C@H](C)NC(=O)[C@H](CCC(=O)O)NC(=O)[C@H](Cc1c[nH]cn1)NC(=O)[C@@H](NC(=O)[C@@H]1CCCN1C(=O)[C@H](CCC(N)=O)NC(=O)[C@H](Cc1ccccc1)NC(=O)[C@@H](NC(=O)[C@H](CCCCN)NC(=O)[C@H](CCCCN)NC(=O)[C@H](CC(C)C)NC(=O)[C@H](C)NC(=O)[C@H](CC(N)=O)NC(=O)[C@H](CC(C)C)NC(=O)CN)C(C)C)[C@@H](C)CC)C(=O)N[C@@H](CCCCN)C(=O)N[C@@H](CC(C)C)C(=O)N[C@H](C(=O)N[C@@H](CC(N)=O)C(=O)N[C@@H](CC(N)=O)C(=O)N[C@@H](Cc1c[nH]cn1)C(=O)N[C@H](C(=O)N[C@@H](CCC(N)=O)C(=O)O)C(C)C)[C@@H](C)CC` [Ps-P] (H-GLNALKKVFQPIHEAIKLINNHVQ-OH), the “MIC, MRSA 3126” value in [1] is 32 µM (≈ 87.2 µg/mL). The “MIC, MRSA 3108” value in data set [2] was found to be 32 µM (≈ 87.2 µg/mL). For the same molecule, the “MHC (minimal peptide concentration that produces haemolysis)” value in data set [3] turned out to be 400 µM. Moreover, the “haemolysis at 400 μM” value in [3] (400) came to 0.5%. The “MIC, MDRAB 12036” value in data set [4] was 8 µM (≈ 21.8 µg/mL). The “MIC, B. subtilis” value in data set [5] came out at 32 µM (≈ 87.2 µg/mL). Besides, the “MIC, MDRPA 2002” value in [6] is 16 µM (≈ 43.6 µg/mL). In data set [7], the “Average MIC, Gram-negative” value is 10 µM. Moreover, the “MIC, MDRAB 12035” value in data set [8] was determined as 8 µM (≈ 21.8 µg/mL). Also, the “MIC, P. aeruginosa” value in data set [9] was determined as 16 µM (≈ 43.6 µg/mL). Also, the “MIC, E. coli” value in data set [10] was 8 µM (≈ 21.8 µg/mL). For the same molecule, in data set [11], the “MIC, A. baumannii” value came out at 8 µM (≈ 21.8 µg/mL). Moreover, in data set [12], the “MIC, MDRPA 2095” value stood at 16 µM (≈ 43.6 µg/mL). Besides, the “MIC, S. aureus” value in [13] turned out to be 32 µM (≈ 87.2 µg/mL). Besides, the “MIC, MDRST 8007” value in [14] was 8 µM (≈ 21.8 µg/mL). Besides, the “MIC, S. epidermidis” value in data set [15] was 32 µM (≈ 87.2 µg/mL). In addition, the “MIC, MDREC 1229” value in data set [16] turned out to be 8 µM (≈ 21.8 µg/mL). Also, in data set [17], the “MIC, S. typhimurium” value turned out to be 8 µM (≈ 21.8 µg/mL). The “Average MIC, Gram-positive” value in data set [18] amounted to 32 µM. Besides, the “MIC, MDRST 8003” value in data set [19] was found to be 16 µM (≈ 43.6 µg/mL). Further, the “MIC, MDREC 1238” value in data set [20] is 8 µM (≈ 21.8 µg/mL). Further, in data set [21], the “MIC, MRSA 3089” value was 32 µM (≈ 87.2 µg/mL).

B1: Ps-K18 (peptide)
peptide: GLNALKKVFQGIHEAIKKINNHVQ
notes: source: synthetic peptide (solid-phase, Fmoc; reversed-phase HPLC, purity >95%)
On to B1, for which the Kd (as a rule, the constant that tells how readily two partners part at equilibrium) in data set [22] is 1500 nM.

B2: Pseudin-2 (peptide)
peptide: GLNALKKVFQGIHEAIKLINNHVQ
notes: as for B1
Consider B2, for which the Kd in data set [22] is 800 nM.

B3: Ps-K14-K18 (peptide)
peptide: GLNALKKVFQGIHKAIKKINNHVQ
notes: as for B1
As to B3, the dissociation constant (Kd) in data set [22] was 6900 nM.
